# Laboratory results: patent publication US20110104064A1, “CYCLIZED NON-NATIVE SYNTHETIC PEPTIDE AND COMPLEX OF PEPTIDES COMPRISING SAID CYCLIZED PEPTIDE, INTENDED TO INDUCE AND TO CH[…] PREVENTION OR TREATMENT OF CONDITIONS IN MAMMALS” (priority 2008, published 2011)
# Bridges are numbered along the chain shown (N, C = ends). Where no end group is shown, it is not given here.
# Columns and labels:
# monocytes = test: Leishmanicidal activity of monocytes (cell-mediated Th1 response); assay type: cell-based, dog; conditions: for immune response after vaccination (summary of Table I): dogs, 1 month after the 3rd injection, with adjuvant QA21
# Source text: (§1) This evidence was gathered using two techniques: • Assaying the leishmanicidal activity of the monocytes according to the method described previously (Patent FRO1076060); • Detection of dog IgG2, specific to the cyclized peptide E34P and the carboxyterminal group of PSA.
# (§2) Biological analysis consisted of: • Serology of specific IgG2 of cyclized peptide E34P and of the carboxyterminal group of PSA; • Leishmaniasis serology: quantitative immunofluorescence of the total IgG (sign of infection); • Leishmanicidal activity of the monocytes (cell-mediated response).
# Leishmania = test: Infection test in vaccinated dogs, parasitology from marrow punctures; assay type: in vivo; conditions: four months after the infection test
# Protocol: The infection test consisted of intravenously injecting 10^8 complement-treated promastigotes in metacyclic phase from a healthy dog and 5×10^8 peritoneous macrophages from a healthy dog, infected in vitro by amastigotes.
# The promastigotes and the infected macrophages were diluted in sterile physiological serum to a final volume of 1.5 mL. This mixture was made up just prior to injection.
# A parasitological examination was carried out from samples taken directly from the dog.
# A smear from the bone-marrow puncture was made on a slide. This smear, once fixed in methanol was May Grümwald Giemsa stained and studied under an immersion microscope (×1000).
# Some bone-marrow samples were cultivated in a biphasic culture medium NNN (Novy and Mac Neal, 1904, 4. Infec. Dis., 1:1-30) of which RPMI 1640 added to 20% of decomplemented fetal veal serum made up the liquid phase. Random subculturing was carried out every 4 to 6 days. The cultures were regularly studied by photon microscope (×400) for 20 minutes.
# The parasitemias were quantified as follows: • +/−: elongated, immobile, refringent forms • +: 1 to 5 mobile/field promastigote forms • ++: >5 mobile/field promastigote forms • +++: cultivated to confluence.
# It was necessary to add to these analyses the study of Leishmania by direct observation under microscope and culture in NNN medium from the bone-marrow after the infection test. […]
# [1] = tested on: Leishmania promastigotes and amastigotes; test: Inhibition of parasitic growth by serums from vaccinated dogs; assay type: cell-based; conditions: in vitro
# Protocol: Inhibition of the growth of promastigotes and amastigotes in the presence of IgG2 (Patent FR0209506).
# The role of the IgG2 on the viability and growth of Leishmania promastigotes and amastigotes was analyzed with immunoserums from dogs vaccinated with the mixture including the cyclized peptide E34P and the serums from the placebo dogs.
# cyclized peptide E34P = test: ELISA serology of dog IgG2 vs. cyclised E34P after vaccination; assay type: in vivo; conditions: non-cyclization at Cys9/Cys15
# Protocol: as §1
# This detection was carried out by the ELISA method according to the microtitration technique of Kweider et al. (J. Immunol, 1987, 138, 299) by using an anti IgG2 conjugate. For this method, the peptide is biotinylated before coating onto microplates. This bonding to […] biotin-type molecules has the effect of rendering the cyclized peptide E34P more antigenic. We also use the recombinant protein coding for the carboxyterminal group of the PSA as antigen.
# Biological analyses were carried out: • Before any injection • 1 month after the 3rd injection.
# as §2
Substance,immune response after vaccination (summary of Table I) (monocytes),protection after the infection test (summary of Table II) (Leishmania),neutralizing / anti-parasitic role of the induced IgG2 [1],IgG2 synthesis (cyclized peptide E34P),Th1 stimulation (monocytes; peptide used alone or in combination with other peptides)
EDEHKGKYCRLGNDCRTTEPTTTATPRGTPTPAP (EDEHKGKYCRLGNDCRTTEPTTTATPRGTPTPAP; disulfide 9-15) [Group E34P],only partial response,insufficient to induce an effective response,induces IgG2 immunoglobulins capable of neutralizing the proliferation,,
"NON-cyclized peptide E34P: the non-cyclized form of peptide E34P (SEQ ID No. 1 without Cys9/Cys15 disulfide bridge) (EDEHKGKYCRLGNDCRTTEPTTTATPRGTPTPAP; non-cyclized, no disulfide; Fully-synthetic sequence)",less effective than the cyclized E34P,,,only induces slight IgG2 synthesis,only induces very partial Th1 stimulation
